This is an account of results in PMC12152147, “DDB1 engagement defines the selectivity of S656 analogs for cyclin K degradation over CDK inhibition” (EMBO Reports, 2025).

In test [1] the test system is OCI-AML5 cells. Nature of the test: Dose-response proliferative assay in OCI-AML5 (4 days, CellTiterGlo). It counts as cell-based, H. sapiens. Conditions: Homo sapiens. The procedure, abridged: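 Viability assessed after 4 days of compound exposure at 37 °C, 5% CO2. Compounds tested as 8 dilutions (1:4, 10 μM to 0.5 nM) on 300 OCI-AML5 cells/well grown in αMEM with 10% heat-inactivated FBS and 10 ng/mL GM-CSF.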
(In general: ATP-based viability assays read luminescence as a measure of living cells.)

In test [2] the target is T1, OCI-AML5 total protein extracts (cyclin K, CDKs, DDB1) (Homo sapiens, UniProt P21439).
T1 construct: endogenous in cells; host or cells: OCI-AML5 total protein extract
T1 sequence (P21439 whole entry): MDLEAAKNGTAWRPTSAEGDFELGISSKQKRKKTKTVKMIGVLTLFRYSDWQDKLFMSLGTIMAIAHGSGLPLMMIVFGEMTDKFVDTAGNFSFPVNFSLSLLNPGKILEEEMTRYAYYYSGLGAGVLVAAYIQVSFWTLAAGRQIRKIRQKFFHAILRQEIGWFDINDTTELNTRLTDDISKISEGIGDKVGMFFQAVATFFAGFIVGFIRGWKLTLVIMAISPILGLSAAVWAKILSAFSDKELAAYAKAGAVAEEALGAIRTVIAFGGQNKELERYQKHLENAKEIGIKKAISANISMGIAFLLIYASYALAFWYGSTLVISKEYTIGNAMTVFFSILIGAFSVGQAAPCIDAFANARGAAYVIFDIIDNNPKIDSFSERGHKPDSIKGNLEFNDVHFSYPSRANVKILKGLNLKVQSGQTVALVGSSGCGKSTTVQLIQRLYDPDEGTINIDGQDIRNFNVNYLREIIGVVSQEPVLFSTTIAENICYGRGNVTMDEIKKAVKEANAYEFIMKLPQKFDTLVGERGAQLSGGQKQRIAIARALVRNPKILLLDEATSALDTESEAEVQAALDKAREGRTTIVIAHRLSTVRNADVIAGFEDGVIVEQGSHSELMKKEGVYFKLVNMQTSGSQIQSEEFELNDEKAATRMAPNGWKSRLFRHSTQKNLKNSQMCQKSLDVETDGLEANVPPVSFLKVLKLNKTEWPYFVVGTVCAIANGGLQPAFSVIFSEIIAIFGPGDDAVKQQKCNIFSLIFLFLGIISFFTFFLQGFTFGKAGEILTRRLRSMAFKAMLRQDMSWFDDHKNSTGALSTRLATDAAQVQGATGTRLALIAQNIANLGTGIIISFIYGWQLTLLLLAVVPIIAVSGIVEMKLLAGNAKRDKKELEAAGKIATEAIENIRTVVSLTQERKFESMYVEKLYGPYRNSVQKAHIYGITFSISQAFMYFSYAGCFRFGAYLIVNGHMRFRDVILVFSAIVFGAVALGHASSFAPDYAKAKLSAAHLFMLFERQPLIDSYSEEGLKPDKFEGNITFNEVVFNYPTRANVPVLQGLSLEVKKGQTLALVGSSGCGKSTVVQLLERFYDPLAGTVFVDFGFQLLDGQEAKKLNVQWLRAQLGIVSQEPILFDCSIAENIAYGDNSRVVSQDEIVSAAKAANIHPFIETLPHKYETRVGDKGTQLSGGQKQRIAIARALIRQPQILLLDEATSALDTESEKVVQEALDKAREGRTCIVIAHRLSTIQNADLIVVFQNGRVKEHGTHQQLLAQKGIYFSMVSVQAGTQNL
Briefly: Pull-down with immobilized probes and quantitative mass spectrometry. Conditions: protein ABCB4 (P21439). It counts as binding, H. sapiens. On the procedure:
(§1) Probe compounds were immobilized through their terminal amine on NHS-sepharose beads as previously described (Médard et al, [2015]). The prepared beads were then washed in PBS and equilibrated in Triton X-100 buffer. For each replicate, 1–2 mg of total proteins (2 mg/ml) were incubated end-over-end with 25 μl of beads overnight at 4 °C in low protein binding microtubes (Sarstedt). The samples were then washed twice in Triton X-100 buffer, transferred to new microtubes and further washed six times in PBS including another microtube transfer at the last wash. Beads pellets were resuspended in 50 mM ammonium bicarbonate and subjected to reduction, alkylation and tryptic digest as described above. Peptides were separated on an home-made reversed-phase column (150-μm i.d. by 200 mm) with a 56-min gradient from 10 to 30% ACN-0.2% FA and a 600-nl/min flow rate on a Easy nLC-1200 connected to a Exploris 480 (ThermoFisher Scientific, San Jose, CA). Each full MS spectrum acquired at a resolution of 120,000 was followed by tandem-MS (MS-MS) spectra acquisition on the most abundant multiply charged precursor ions for 3 s. Tandem-MS experiments were performed using higher energy collision dissociation (HCD) at a collision energy of 34%. The data were processed using PEAKS X Pro (Bioinformatics Solutions, Waterloo, ON) and a Uniprot human database (20366 entries). Mass tolerances on precursor and fragment ions were 10 ppm and 0.01 Da, respectively. Fixed modification was carbamidomethyl (C). Variable selected posttranslational modifications were acetylation (N-ter), oxidation (M), deamidation (NQ), phosphorylation (STY). The data were visualized with Scaffold 5.0 (protein threshold, 99%, with at least 2 peptides identified and a false-discovery rate [FDR] of 1% for peptides).
(§2) Differential Enrichment analysis of Proteomics data (DEP) package (Zhang et al, [2018]) in R was used to analyze the data (excluding proteins identified based on a single peptide), including data filtering, normalization, imputation of missing values and statistical testing of differentially expressed proteins.

For test [3], the target named is T2, OCI-AML5 total protein extracts (cyclin K, CDKs, DDB1) (Homo sapiens, UniProt P45844).
T2 construct: endogenous in cells; host or cells: OCI-AML5 total protein extract
The description is as above. It counts as binding, H. sapiens. Conditions: protein ABCG1 (P45844). The method, then:
as §1, §2

The target in test [4] is T3, OCI-AML5 total protein extracts (cyclin K, CDKs, DDB1) (Homo sapiens, UniProt Q6UXT9).
T3 construct: endogenous in cells; host or cells: OCI-AML5 total protein extract
T3 sequence (Q6UXT9 24-468): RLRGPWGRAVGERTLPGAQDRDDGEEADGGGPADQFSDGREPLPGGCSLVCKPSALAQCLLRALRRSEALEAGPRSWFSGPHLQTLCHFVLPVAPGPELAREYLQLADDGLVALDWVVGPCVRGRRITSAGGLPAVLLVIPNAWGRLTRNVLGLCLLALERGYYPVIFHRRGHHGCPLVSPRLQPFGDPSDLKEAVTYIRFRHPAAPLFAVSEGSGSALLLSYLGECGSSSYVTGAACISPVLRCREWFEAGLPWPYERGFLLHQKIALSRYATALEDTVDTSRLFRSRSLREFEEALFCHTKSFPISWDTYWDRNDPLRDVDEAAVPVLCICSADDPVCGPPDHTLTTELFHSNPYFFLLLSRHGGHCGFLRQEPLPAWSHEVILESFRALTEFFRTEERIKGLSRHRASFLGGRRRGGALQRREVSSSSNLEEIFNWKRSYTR
The test is described as above. Conditions: protein ABHD15 (Q6UXT9). It counts as binding, H. sapiens. On the procedure: as §1, §2

In test [5] the target is T4, OCI-AML5 total protein extracts (cyclin K, CDKs, DDB1) (Homo sapiens, UniProt Q86UQ4).
T4 construct: endogenous in cells; host or cells: OCI-AML5 total protein extract
Described as above. Conditions: protein ABCA13 (Q86UQ4). It counts as binding, H. sapiens. The method, then:
as §1, §2

In test [6] the target is T5, OCI-AML5 total protein extracts (cyclin K, CDKs, DDB1) (Homo sapiens, UniProt Q96IU4).
T5 construct: endogenous in cells; host or cells: OCI-AML5 total protein extract
T5 sequence (Q96IU4 1-210): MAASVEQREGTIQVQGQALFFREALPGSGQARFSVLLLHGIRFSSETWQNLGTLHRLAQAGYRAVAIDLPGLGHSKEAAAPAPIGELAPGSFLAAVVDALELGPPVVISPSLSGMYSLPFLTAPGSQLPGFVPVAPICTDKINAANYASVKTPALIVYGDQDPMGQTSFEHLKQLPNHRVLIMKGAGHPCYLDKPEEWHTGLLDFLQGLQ
The test is described as above. Format: binding, H. sapiens. Conditions: protein ABHD14B (Q96IU4). The method, then:
as §1, §2

Test [7] relates to cyclin KeGFP. Nature of the test: Cyclin KeGFP reporter system (eGFP/mCherry MFI by flow cytometry).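 Further: 10 μM compound for 3 h relative to DMSO.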 Conditions: cyclin K-eGFP reporter. Format: cell-based, H. sapiens. The procedure, abridged: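 Degradation read as eGFP-to-mCherry MFI ratio relative to DMSO controls, from flow cytometry of the selected G7 clone of OCI-AML5 cells transduced with the cyclin KeGFP reporter.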
(In general: A flow cytometer gives signals particle by particle.)

For test [8], the system named is OCI-AML5 cells expressing shRNAs targeting CDK1, 2, 4, 7, 9, cyclin K. Nature of the test: Dose response in OCI-AML5 expressing shRNAs targeting CDK1, 2, 4, 7, 9, cyclin K or control. Format: cell-based, H. sapiens. The conditions noted are these: for pIC50: Homo sapiens; for Class: class from shRNA IC50 profile and cyclin K-eGFP degradation.
The target of test [9] is T6, CDK1 (Homo sapiens, UniProt P06493).
T6 construct: purchased BPS Bioscience 79597
T6 sequence (P06493 whole entry): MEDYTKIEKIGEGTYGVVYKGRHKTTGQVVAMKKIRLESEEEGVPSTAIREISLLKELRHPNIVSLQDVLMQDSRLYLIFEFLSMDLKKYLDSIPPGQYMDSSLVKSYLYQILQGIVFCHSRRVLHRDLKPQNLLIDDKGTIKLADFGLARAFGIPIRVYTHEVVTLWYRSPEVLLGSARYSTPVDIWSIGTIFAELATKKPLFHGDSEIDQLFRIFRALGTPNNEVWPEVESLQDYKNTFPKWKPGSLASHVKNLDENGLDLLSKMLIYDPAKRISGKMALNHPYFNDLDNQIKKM
T6 sequence (P14635 whole entry partner): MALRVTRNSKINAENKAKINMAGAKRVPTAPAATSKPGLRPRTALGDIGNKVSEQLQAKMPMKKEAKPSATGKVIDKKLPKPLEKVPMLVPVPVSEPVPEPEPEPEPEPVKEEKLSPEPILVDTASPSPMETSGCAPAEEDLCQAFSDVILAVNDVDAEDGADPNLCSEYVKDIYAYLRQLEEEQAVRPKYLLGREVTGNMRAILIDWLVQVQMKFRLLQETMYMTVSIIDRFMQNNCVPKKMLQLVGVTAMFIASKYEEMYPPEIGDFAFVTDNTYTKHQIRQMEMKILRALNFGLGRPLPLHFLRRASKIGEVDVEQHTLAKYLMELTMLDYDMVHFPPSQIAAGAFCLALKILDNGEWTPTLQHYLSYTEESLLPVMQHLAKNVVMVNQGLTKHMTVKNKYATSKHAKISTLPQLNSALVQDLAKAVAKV
Briefly: CDK1 in vitro kinase activity, single concentration 1 μM. It counts as biochemical. Conditions: single concentration 1 μM. The method, then:
(§3) Kinase activity was assessed using the kinase assay kits from BPS Bioscience for CDK1, CDK9 and CDK12 with Kinase Glo MAX in duplicates. Compounds were tested at a single concentration of 1 μM for CDK1 and CDK9 activity, and in a dilution ranging from 0.64 nM to 50 μM for CDK12 activity. Chemiluminescence was read using the Neo Synergy BioTek plate reader.

The subject of test [10] is OCI-AML5 cells expressing shRNA targeting CUL4A or CUL4B. Briefly: Dose response in OCI-AML5 expressing shRNAs targeting CUL4A, CUL4B or control. It counts as cell-based, H. sapiens. The conditions noted are these: ratio of IC50 in shCUL4A vs shCTRL OCI-AML5 cells.
The target of test [11] is T7, CDK9/CyclinT (Homo sapiens, UniProt P50750).
T7 construct: purchased BPS Bioscience 79628
T7 sequence (P50750 whole entry): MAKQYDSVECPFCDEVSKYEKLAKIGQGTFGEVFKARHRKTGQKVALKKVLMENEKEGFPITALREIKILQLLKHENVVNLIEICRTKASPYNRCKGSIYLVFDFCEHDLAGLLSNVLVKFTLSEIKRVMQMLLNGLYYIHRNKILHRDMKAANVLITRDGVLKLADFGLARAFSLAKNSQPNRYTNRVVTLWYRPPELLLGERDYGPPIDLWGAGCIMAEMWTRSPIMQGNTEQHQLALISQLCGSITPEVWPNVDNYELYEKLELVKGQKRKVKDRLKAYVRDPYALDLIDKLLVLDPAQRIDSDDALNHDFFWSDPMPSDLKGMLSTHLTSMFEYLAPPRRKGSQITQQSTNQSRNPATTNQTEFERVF
T7 sequence (O60563 whole entry partner): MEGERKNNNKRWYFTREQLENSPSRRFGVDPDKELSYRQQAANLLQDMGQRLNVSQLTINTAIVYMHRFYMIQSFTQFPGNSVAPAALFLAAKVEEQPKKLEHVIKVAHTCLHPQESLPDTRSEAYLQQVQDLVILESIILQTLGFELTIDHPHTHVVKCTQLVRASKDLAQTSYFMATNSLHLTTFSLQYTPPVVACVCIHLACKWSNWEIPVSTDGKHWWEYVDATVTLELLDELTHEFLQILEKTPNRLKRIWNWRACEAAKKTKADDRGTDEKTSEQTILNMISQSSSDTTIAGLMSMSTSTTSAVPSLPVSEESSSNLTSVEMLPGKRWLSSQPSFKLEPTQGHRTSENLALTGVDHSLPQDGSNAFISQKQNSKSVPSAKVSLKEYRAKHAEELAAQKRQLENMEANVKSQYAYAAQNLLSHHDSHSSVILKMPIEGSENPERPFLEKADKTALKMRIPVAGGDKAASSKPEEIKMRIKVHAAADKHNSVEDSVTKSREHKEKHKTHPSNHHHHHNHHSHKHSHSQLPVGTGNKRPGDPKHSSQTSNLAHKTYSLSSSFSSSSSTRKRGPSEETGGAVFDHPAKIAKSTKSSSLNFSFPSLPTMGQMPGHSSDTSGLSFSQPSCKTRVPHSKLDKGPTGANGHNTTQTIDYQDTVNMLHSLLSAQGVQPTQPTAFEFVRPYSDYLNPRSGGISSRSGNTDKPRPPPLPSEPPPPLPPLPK
Briefly: CDK9/CyclinT in vitro kinase activity, single concentration 1 μM. Conditions: single concentration 1 μM. It counts as biochemical. The method, then:
as §3

[12] abbreviates: OCI-AML-5, OCI-AML5 cells, read-out: IC50 in AML5.
Setting [13] is: OCI-AML-5, OCI-AML5 expressing shRNA CCNK (cyclin K), read-out: IC50 shRNA CCNK.
Setting [14] is: OCI-AML-5, OCI-AML5 expressing shRNA CDK1, read-out: IC50 shRNA CDK1.
Setting [15] is: OCI-AML-5, OCI-AML5 expressing shRNA CDK2, read-out: IC50 shRNA CDK2.
Where [16] appears, read: OCI-AML-5, OCI-AML5 expressing shRNA CDK4, read-out: IC50 shRNA CDK4.
The mark [17] stands for this setting: OCI-AML-5, OCI-AML5 expressing shRNA CDK7, read-out: IC50 shRNA CDK7.
The mark [18] stands for this setting: OCI-AML-5, OCI-AML5 expressing shRNA CDK9, read-out: IC50 shRNA CDK9.

Structures are written as SMILES. pIC50: −log10 of the molar value. Like-named read-outs stand apart in the source and are kept apart here.

For the compound `CN(CCOCCOCCN)c1ccc(CC(=O)Nc2nnc(SCc3cccnc3)s2)cc1` [UOM-005839], in test [1] (OCI-AML-5, 96 h, 4 days incubation, read-out: IC50 OCI-AML5), the pIC50 (usually the IC50 on a negative log10 scale, so that one unit is a factor of ten) was less than 5.00. Also, the UOM-005839_centered is on record as 0.902 in test [2] (centered abundance); -1.3 in test [3] (centered abundance); 0.886 in test [4] (centered abundance); 0.126 in test [5] (centered abundance); 0.505 in [6] (centered abundance). Moreover, the UOM-005839_vs_Beads_ratio in test [2] (immobilized probe vs beads) was -2; in test [3] (immobilized probe vs beads), 1.31; in [4] (immobilized probe vs beads), 4.56; in test [5] (immobilized probe vs beads) it was -0.0556; in [6] (immobilized probe vs beads) it was 3.62.

In the case of `O=C(Cc1coc2cc3c(cc12)CCC3)Nc1ncc(SCc2cccnc2)s1` [UOM-005479], the pIC50 is 5.71 in test [1] (setting [12]); 6.05 in [8] (setting [13]); 5.65 in test [8] (setting [14]); 5.62 in test [8] (setting [15]); 5.72 in test [8] (setting [16]); 5.64 in test [8] (setting [17]). The pIC50 in [8] (setting [18]) was 5.77. For the same compound, the “% degradation cyclin K-eGFP” value in test [7] turned out to be 76%. Further, the “class based on cellular selectivity” value in [8] (IC50 in shRNA OCI-AML5 cells and cyclin KeGFP degradation) is “Class I (effective cyclin K MGDs (decreased IC50 in cyclin K depleted cells only, and >65% degradation of cyclin KeGFP))”. Also, in [8], the Class is listed as 1. The inhibition (usually how much of the control response was suppressed) at 1 µM in test [9] was 37%; in [11], 100%. Further, the “Ratio shCUL4A/shCTRL” value in test [10] is 1.94.

As to `Cc1ccc(CC(=O)Nc2ncc(SCc3cccnc3)s2)cc1` [UOM-005202], the pIC50 was 5.47 in [1] (setting [12]); 5.53 in test [8] (setting [13]); 6.03 in [8] (setting [14]); 5.55 in [8] (setting [15]); 5.43 in test [8] (setting [16]); 5.54 in test [8] (setting [17]). In [8] (setting [18]), the negative-log IC50 (pIC50) is 5.75. Also, the “% degradation cyclin K-eGFP” value in test [7] is recorded as 28%. Moreover, the Class in [8] was determined as 2. Further, the inhibition at 1 µM in test [9] stood at 65%; in [11] it was 50%. Further, the “Ratio shCUL4A/shCTRL” value in test [10] came to 0.7.
